Measurements reported in patent US12421252B2, “Spiro (isobenzofuranazetidine) compounds for the treatment of autoimmune disease” (Hoffmann-La Roche Inc., priority 2020, dated 2025).

What follows are molecules tested against T1, human TLR7 (Homo sapiens, UniProt Q9NYK1) (assay: HEK293-Blue-hTLR-7 cells assay). Conditions: HEK293-Blue-hTLR7 cells, R848 stimulation, 20 hrs, SEAP reporter; read-out: HEK/hTLR7 IC50.
T1 sequence (Q9NYK1 27-1049): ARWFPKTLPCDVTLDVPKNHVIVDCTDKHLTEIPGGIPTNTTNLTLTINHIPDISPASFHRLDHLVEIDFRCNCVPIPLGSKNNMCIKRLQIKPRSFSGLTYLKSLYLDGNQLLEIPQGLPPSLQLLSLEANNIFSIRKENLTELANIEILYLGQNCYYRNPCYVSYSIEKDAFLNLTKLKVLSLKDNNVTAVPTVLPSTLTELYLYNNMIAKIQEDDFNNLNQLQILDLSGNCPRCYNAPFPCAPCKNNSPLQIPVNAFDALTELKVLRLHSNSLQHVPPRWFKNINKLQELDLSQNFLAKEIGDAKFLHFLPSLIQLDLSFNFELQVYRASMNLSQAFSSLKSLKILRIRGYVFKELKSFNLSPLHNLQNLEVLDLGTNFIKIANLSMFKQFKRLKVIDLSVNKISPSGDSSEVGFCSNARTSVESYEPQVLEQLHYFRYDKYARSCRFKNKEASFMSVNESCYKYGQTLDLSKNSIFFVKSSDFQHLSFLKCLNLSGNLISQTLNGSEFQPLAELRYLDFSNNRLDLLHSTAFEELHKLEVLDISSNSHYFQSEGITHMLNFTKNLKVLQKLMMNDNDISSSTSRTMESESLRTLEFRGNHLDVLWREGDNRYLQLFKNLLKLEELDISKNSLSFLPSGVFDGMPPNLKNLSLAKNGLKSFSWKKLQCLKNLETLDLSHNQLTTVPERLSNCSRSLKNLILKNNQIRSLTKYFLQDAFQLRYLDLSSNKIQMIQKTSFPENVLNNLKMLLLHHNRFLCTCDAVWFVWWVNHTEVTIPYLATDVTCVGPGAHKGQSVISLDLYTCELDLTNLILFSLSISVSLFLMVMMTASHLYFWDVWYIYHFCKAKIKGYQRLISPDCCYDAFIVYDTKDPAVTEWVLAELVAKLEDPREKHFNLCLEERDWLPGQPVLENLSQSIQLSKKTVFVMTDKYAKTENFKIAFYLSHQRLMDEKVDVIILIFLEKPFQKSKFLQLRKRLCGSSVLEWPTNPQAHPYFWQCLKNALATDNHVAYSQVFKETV
Assay type: cell-based
Description: HEK293-Blue-hTLR-7 cells assay:
A stable HEK293-Blue-hTLR-7 cell line was purchased from InvivoGen (Cat. #: hkb-htlr7, San Diego, California, USA). These cells were originally designed for studying the stimulation of human TLR7 by monitoring the activation of NF-κB. A SEAP (secreted embryonic alkaline phosphatase) reporter gene was placed under the control of the IFN-β minimal promoter fused to five NF-κB and AP-1-binding sites. The SEAP was induced by activating NF-κB and AP-1 via stimulating HEK-Blue hTLR7 cells with TLR7 ligands. Therefore the reporter expression was declined by TLR7 antagonist under the stimulation of a ligand, such as R848 (Resiquimod), for incubation of 20 hrs. The cell culture supernatant SEAP reporter activity was determined using QUANTI-Blue™ kit (Cat. #: rep-qb1, Invivogen, San Diego, Ca, USA) at a wavelength of 640 nm, a detection medium that turns purple or blue in the presence of alkaline phosphatase.
HEK293-Blue-hTLR7 cells were incubated at a density of 250,000˜450,000 cells/mL in a volume of 170 μL in a 96-well plate in Dulbecco's Modified Eagle's medium (DMEM) containing 4.5 g/L glucose, 50 U/mL penicillin, […], […], 2 mM L-glutamine, 10% (v/v) heat-inactivated fetal bovine serum with addition of 20 μL test compound in a serial dilution in the presence of final DMSO at 1% and 10 μL of 20 uM R848 in above DMEM, perform incubation under 37° C. in a CO2 incubator for 20 hrs. Then 20 μL of the supernatant from each well was incubated with 180 μL Quanti-blue substrate solution at 37° C. for 2 hrs and the absorbance was read at 620˜655 nm using a spectrophotometer. The signaling pathway that TLR7 activation leads to downstream NF-κB activation has been widely accepted, and therefore similar reporter assay was modified for evaluating TLR7 antagonist.
In the case of `C[C@@H]1CN(c2ccc(C#N)n3nccc23)C[C@H](CN2CC3(C2)OCc2cc(N4CC(C)(N)C4)ncc23)O1` [Example 25, 4-[(2S,6R)-2-[[6-(3-amino-3-methyl-azetidin-1-yl)spiro[1H-furo[3,4-c]pyridine-3,3′-azetidine]-1′-yl]methyl]-6-methyl-morpholin-4-yl]pyrazolo[1,5-a]pyridine-7-carbonitrile], the IC50 is reported as 23 nM. With `C[C@@H]1CN(c2ccc(C#N)n3ncc(F)c23)C[C@H](CN2CC3(C2)OCc2cc(N4CC(C)(N)C4)ncc23)O1` [Example 24, 4-[(2S,6R)-2-[[6-(3-amino-3-methyl-azetidin-1-yl)spiro[1H-furo[3,4-c]pyridine-3,3′-azetidine]-1′-yl]methyl]-6-methyl-morpholin-4-yl]-3-fluoro-pyrazolo[1,5-a]pyridine-7-carbonitrile] the IC50 was 16 nM. Work on `C[C@@H]1CN(c2ccc(C#N)n3ncc(F)c23)C[C@H](CN2CC3(C2)OCc2cc(N4CC(C)(N)C4)cnc23)O1` [Example 33, 4-[(2S,6R)-2-[[3-(3-amino-3-methyl-azetidin-1-yl)spiro[5H-furo[3,4-b]pyridine-7,3′-azetidine]-1′-yl]methyl]-6-methyl-morpholin-4-yl]-3-fluoro-pyrazolo[1,5-a]pyridine-7-carbonitrile] yielded an IC50 of 13 nM. With `C[C@@H]1CN(c2ccc(C#N)n3nccc23)C[C@H](CN2CC3(C2)OCc2cc(N4CC5(CNCCO5)C4)ccc23)O1` [Example 7, 4-[(2R,6S)-2-methyl-6-[[6-(5-oxa-2,8-diazaspiro[3.5]nonan-2-yl)spiro[1H-isobenzofuran-3,3′-azetidine]-1′-yl]methyl]morpholin-4-yl]pyrazolo[1,5-a]pyridine-7-carbonitrile] the IC50 was 15 nM. `C[C@@H]1CN(c2ccc(C#N)n3ncc(F)c23)C[C@H](CN2CC3(C2)OCc2cc(N4C[C@H](N)[C@@H](O)C4)ccc23)O1` [Example 10, 4-[(2S,6R)-2-[[6-[(3S,4S)-3-amino-4-hydroxy-pyrrolidin-1-yl]spiro[1H-isobenzofuran-3,3′-azetidine]-1′-yl]methyl]-6-methyl-morpholin-4-yl]-3-fluoro-pyrazolo[1,5-a]pyridine-7-carbonitrile] gave an IC50 of 8 nM. Molecule `[2H]c1ccc2c(N3C[C@H](CN4CC5(C4)OCc4cc(N6C[C@@H](N)[C@H](OC)C6)cnc45)O[C@H](C)C3)ccc(C#N)c2n1` [Example 31, 5-[(2S,6R)-2-[[3-[(3R,4R)-3-amino-4-methoxy-pyrrolidin-1-yl]spiro[5H-furo[3,4-b]pyridine-7,3′-azetidine]-1′-yl]methyl]-6-methyl-morpholin-4-yl]-2-deuterio-quinoline-8-carbonitrile] has an IC50 of 7 nM. With `C[C@@H]1CN(c2ccc(C#N)n3ncc(F)c23)C[C@H](CN2CC3(C2)OCc2cc(N4CC5(CN(C)C5)C4)cnc23)O1` [Example 22, 3-fluoro-4-[(2R,6S)-2-methyl-6-[[3-(6-methyl-2,6-diazaspiro[3.3]heptan-2-yl)spiro[5H-furo[3,4-b]pyridine-7,3′-azetidine]-1′-yl]methyl]morpholin-4-yl]pyrazolo[1,5-a]pyridine-7-carbonitrile] the IC50 was 9 nM. `C[C@@H]1CN(c2ccc(C#N)n3ncc(F)c23)C[C@H](CN2CC3(C2)OCc2cc(N4CCNCC4)ccc23)O1` [Example 6, 3-fluoro-4-[(2R,6S)-2-methyl-6-[(6-piperazin-1-ylspiro[1H-isobenzofuran-3,3′-azetidine]-1′-yl)methyl]morpholin-4-yl]pyrazolo[1,5-a]pyridine-7-carbonitrile] gave an IC50 of 8 nM.
